# ChEMBL document CHEMBL2448809, “UCSF DeRisi Lab MMV Box Apicoplast Screening”
# Test system: Plasmodium falciparum
# Test: MMV: Compounds (1uM) were screened in a 72hr growth assay monitored by flow cytometry both in the presence and absence of supplemental isopentenyl pyrophosphate (IPP) 200uM. Compounds which fail to show anti-malarial activity when chemically rescued by IPP are therefore specific to the apicoplast. The values are expressed as the ratio of the corresponding activity with and without IPP, respectively.
# Assay type: functional, W2
row,SMILES,Ratio
1,Nc1ccn([C@@H]2O[C@H](CO)[C@@H](O)[C@H]2O)c(=O)n1 [CYTIDINE],0.6667
2,O=C(Nc1cccc(C2=NCCN2)c1)Nc1cccc(C2=NCCN2)c1 [IMIDOCARB],1
3,CN(C)c1ccc(C(O)(c2ccc(N(C)C)cc2)c2ccc(N(C)C)cc2)cc1 [METHYLROSANILINE],1.127
